Paper PMC5720837, “Identification of a 4-fluorobenzyl L-valinate amide benzoxaborole (AN11736) as a potential development candidate for the treatment of Animal African Trypanosomiasis (AAT)” (Bioorganic & Medicinal Chemistry Letters, 2018)

Assays:
[1] = tested on: Trypanosoma congolense (T. congolense IL-3000 strain), bloodstream form; assay: Whole cell Alamar Blue assay, T. congolense (72 h in vitro); format: cell-based; conditions: Trypanosoma congolense, 72 h, T. congolense IL-3000, 72 h in vitro Alamar Blue assay
Experimental: (§1) Activity of compounds 1–71 against T. congolense and T. vivax was determined using the whole cell assays as described ^6 and their IC50 values are summarized in Table 1.
(§2) [6] Assay methods for determination of T. c. and T. v. […] Culture media consisted of complete HMI-9 (IMDM) with 20% bovine serum. To ensure log growth phase, trypanosomes were sub-cultured at appropriate dilutions every 2–3 days. Bloodstream form Trypanosoma vivax (T. vivax) cannot be cultured axenically, therefore trypanosomes (T. vivax STIB719/ILRAD 560 strain) were harvested from a highly parasitemia mouse via cardiac puncture and used directly in the ex vivo drug sensitivity assay on the same day. […] Parasite starting concentrations of 2 × 10^5 (T. c.) and 4 × 10^5 (T. v.) were calculated respectively, using a cell analyzer system or haemo-cytometer, followed by quantification at 536 nm excitation and 588 nm emission wavelengths using a […] reader. Test compounds were prepared as 10 mg/mL DMSO stocks for each assay run. Compounds were assayed in at least three separate, independent test runs and an 11-point dilution curve was used to determine the IC50 values. Data points were averaged to generate sigmoidal dose-response curves and IC50 values were determined using Softmax Pro 5.2 software.

[2] = tested on: Trypanosoma vivax (T. vivax STIB719/ILRAD 560 strain), bloodstream form; assay: Whole cell Alamar Blue assay, T. vivax (48 h ex vivo); format: cell-based; conditions: T. vivax STIB719/ILRAD 560, 48 h ex vivo Alamar Blue assay; for IC50: Trypanosoma vivax
Experimental: as §1, §2

[3] = In vitro metabolic stability, mouse S9; format: in vitro ADME; conditions: S9 fraction
Experimental: (§3) Selected compounds were screened in both mouse and bovine in vitro metabolic stability assays (mouse S9 and bovine S9), as summarized in Table 2. These two species were chosen because the primary in vivo assays were conducted in mice, and the target animal of this research program is cattle. […] We evaluated the efficacy of selected compounds in two in vivo mouse models of infection, against T. congolense and T. vivax, respectively. Mice were infected with either 1 × 10^5 T. c. parasites or 1 × 10^4 T. v. parasites, and then treated with a test compound via intraperitoneal administration for 1, 2 or 4 consecutive days. The mice were then monitored for the presence of parasitemia for up to 60 days post treatment.[7] We tested in T. c. model first, then followed up with T. v. for interesting compounds. […] We selected compound 5 (AN11736) to progress to exploratory studies to determine the efficacy and safety in a preliminary formulation against induced infections of T. vivax and T. congolense in cattle.[8]

[4] = In vitro metabolic stability, bovine S9; format: in vitro ADME; conditions: S9 fraction
Experimental: as §3

[5] = tested on: T. c. parasites (STIB736/IL1180 strain); assay: In vivo mouse model of T. congolense infection; set-up: species or system NMRI female mice; conditions: intraperitoneal, monitored 60 days post treatment
Experimental: as §3
[7] Methods for testing compound efficacy in mouse models: In vivo mouse efficacy studies were performed at the Swiss TPH, using established mouse models of infection for T. c. and T. v. NMRI female mice were independently infected either with 1 × 10^5T. c. parasites/mouse (STIB736/IL1180 strain) or 1 × 10^4T. v. parasites/mouse (STIB719/ILRAD560 strain) using an intraperitoneal route. Parasitemia was allowed to develop over 7 days (T. c.) or 3 days (T. v.), respectively, before treatment was administered. Compounds were administered via intraperitoneal injection in 10% DMSO/water. Four mice were used per treatment group. Mice were monitored for the presence of trypanosomes, via tail blood examination microscopically with twice-per-week parasitemia checks for 60 days post treatment. Parasitemia was graded on a scale of 0–3, with 0 indicating no trypanosomes seen in 20 fields of view, 1 indicating the presence of 1–5 trypanosomes per field, 2 indicating the presence of 6–20 trypanosomes per field and 3 indicating greater than 20 trypanosomes per field. Mice scoring 2 or 3 were immediately euthanized. After 60 days, aparasitemic mice were considered cured. Untreated control mice survive on average for 10 and 6 days post infection for T. c. and T. v., respectively. All in vivo mouse experiments were conducted in accordance with the strict guidelines set out by the Swiss Federal Veterinary Office, under the ethical approval of license number #2813.

| SMILES | IC50 [1] | IC50 [2] | microsomal CLint [3] | microsomal CLint [4] | Efficacy in mouse model T. c., n/m (mice survived / total mice in group) ([5]; 2 × 10 mg/kg) | Efficacy in mouse model T. c., n/m (mice survived / total mice in group) ([5]; 1 × 10 mg/kg) | IC50 (nM) T. v. [2] | Efficacy in mouse model T. c., n/m (mice survived / total mice in group) ([5]; 4 × 10 mg/kg) |
| --- | --- | --- | --- | --- | --- | --- | --- | --- |
| CCc1c(C(=O)N[C@H](C(=O)OCc2ccc(F)cc2)C(C)C)ccc2c1B(O)OC2 [Compound 24] | 0.11 nM | 0.05 nM | 21 µL/min/mg | 23 µL/min/mg | 1/4 (2 × 10) | – | – | – |
| Cc1c(C(=O)N[C@H](C(=O)OCc2cnc3ccccc3n2)C(C)C)ccc2c1B(O)OC2 [Compound 47] | 0.2 nM | 0.081 nM | 4.8 µL/min/mg | 10 µL/min/mg | – | 0/4 (1 × 10) | – | – |
| Cc1c(C(=O)N[C@H](C(=O)OCc2ccc(S(=O)(=O)N3CCN(C)CC3)cc2)C(C)C)ccc2c1B(O)OC2 [Compound 54] | 1 nM | 0.37 nM | 5.5 µL/min/mg | 3.8 µL/min/mg | – | 0/4 (1 × 10) | – | – |
| COC(=O)[C@@H](NC(=O)c1ccc2c(c1C)B(O)OC2)C(C)C [Compound 55] | 4.2 nM | 3.3 nM | < 1 µL/min/mg | 3.1 µL/min/mg | – | 0/4 (1 × 10) | – | – |
| Cc1c(C(=O)NC2(C(=O)OCc3ccc(F)cc3)CC2)ccc2c1B(O)OC2 [Compound 31] | 0.13 nM | 18 nM | < 1 µL/min/mg | < 1 µL/min/mg | – | 0/4 (1 × 10) | decreased activity | – |
| CC(C)[C@H](NC(=O)c1ccc2c(c1)B(O)OC2)C(=O)OCc1ccc(F)cc1 [Compound 20] | 3 nM | 1 nM | 1.5 µL/min/mg | 1.3 µL/min/mg | – | – | – | 0/5 (4 × 10) |
| Cc1c(C(=O)N[C@H](C(=O)OCc2ccc(F)c(C(F)(F)F)c2)C(C)C)ccc2c1B(O)OC2 [Compound 17] | 0.21 nM | 0.04 nM | 14 µL/min/mg | 10 µL/min/mg | – | 0/4 (1 × 10) | – | – |
| Cc1c(C(=O)N[C@H](C(=O)OCc2cccc(C#N)c2)C(C)C)ccc2c1B(O)OC2 [Compound 14] | 0.1 nM | 0.06 nM | 9.1 µL/min/mg | 2.7 µL/min/mg | – | 0/4 (1 × 10) | – | – |
| Cc1c(C(=O)N[C@H](C(=O)OCc2nccc(C(F)(F)F)n2)C(C)C)ccc2c1B(O)OC2 [Compound 41] | 0.78 nM | 0.11 nM | 1.3 µL/min/mg | 1.8 µL/min/mg | – | 0/4 (1 × 10) | – | – |
| Cc1c(C(=O)N[C@H](C(=O)OCc2cc(F)c(F)c(F)c2)C(C)C)ccc2c1B(O)OC2 [Compound 18] | 0.2 nM | 0.06 nM | 9.7 µL/min/mg | 3.1 µL/min/mg | – | 1/4 (1 × 10) | – | – |
| Cc1c(C(=O)N[C@H](C(=O)OCc2ccc(F)cc2)C(C)(C)O)ccc2c1B(O)OC2 [Compound 29] | 0.26 nM | 0.1 nM | < 1 µL/min/mg | < 1 µL/min/mg | – | 0/4 (1 × 10) | – | – |
| Cc1c(C(=O)N[C@H](C(=O)OCc2ccc(F)cn2)C(C)C)ccc2c1B(O)OC2 [Compound 35] | 0.15 nM | 0.09 nM | 5.2 µL/min/mg | 7.8 µL/min/mg | – | 0/4 (1 × 10) | – | – |
| Cc1c(C(=O)N[C@H](C(=O)OCc2ccc(S(C)(=O)=O)cc2)C(C)C)ccc2c1B(O)OC2 [Compound 19] | 0.61 nM | 0.44 nM | 2.6 µL/min/mg | 1.3 µL/min/mg | – | 0/4 (1 × 10) | – | – |
| Cc1c(C(=O)N[C@H](C(=O)OCc2cccc(CN3CCN(C)CC3)c2)C(C)C)ccc2c1B(O)OC2 [Compound 52] | 1.3 nM | 0.29 nM | 1.8 µL/min/mg | 6 µL/min/mg | – | 0/4 (1 × 10) | – | – |
